Data as given in patent publication US20260345619A1 (Principia Biopharma Inc., priority 2023, published 2026).

Assay: Asthma Quality of Life Questionnaire with Standardized Activities (AQLQ(S))
Type: in vivo, human
Settings: mITT
From the text: The AQLQ(S) is a self-administered patient reported outcome to measure the functional impairments that are most troublesome to adolescents and adults ≥12 years of age as a result of their asthma.
Asthma Quality of Life Questionnaire with Standardized Activities (AQLQ(S)) self-administered (≥12 years)
The AQLQ(S) was designed as a self-administered patient reported outcome to measure the functional impairments that are most troublesome to adolescents and adults ≥12 years of age as a result of their asthma. The instrument is comprised of 32 items, each rated on a 7-point Likert scales from 1 to 7. The AQLQ(S) has 4 domains. The domains and the number of items in each domain are as follows: • Symptoms (12 items) • Activity limitation (11 items) • Emotional function (5 items) • Environmental stimuli (4 items)
A global score is calculated ranging from 1 to 7 and a score by domain. Higher scores indicate better quality of life. […] Patients were to complete the questionnaire in an electronic diary during on-site visits.
Secondary endpoints included pre-bronchodilator FEV1 change from baseline at EOT, ACQ-5 score change from baseline, and AQLQ score change from baseline. Other secondary and exploratory endpoints are described in Table 2.

SMILES: CC(C)(C=C(C#N)C(=O)N1CCC[C@@H](n2nc(-c3ccc(Oc4ccccc4)cc3F)c3c(N)ncnc32)C1)N1CCN(C2COC2)CC1 (mixture of isomers) [rilzabrutinib, (R)-2-[3-[4-amino-3-(2-fluoro-4-phenoxy-phenyl)pyrazolo[3,4-d]pyrimidin-1-yl]piperidine-1-carbonyl]-4-methyl-4-[4-(oxetan-3-yl)piperazin-1-yl]pent-2-enenitrile]
- AQLQ(S) Global score, Mean (Week 8, 400 mg TID): 5.27
- AQLQ(S) Global score, Median (Week 8, 400 mg TID): 5.06
- AQLQ(S) Global score, change from baseline, LS Mean (Week 8, 400 mg TID): 0.42
- AQLQ(S) Global score, change from baseline, Mean (Week 8, 400 mg TID): 0.29
- AQLQ(S) Global score, change from baseline, Median (Week 8, 400 mg TID): 0.34
- AQLQ(S) Symptoms score, Mean (Week 8, 400 mg TID): 5.29
- AQLQ(S) Symptoms score, Median (Week 8, 400 mg TID): 5.17
- AQLQ(S) Symptoms score, change from baseline, LS Mean (Week 8, 400 mg TID): 0.44
- AQLQ(S) Symptoms score, change from baseline, Mean (Week 8, 400 mg TID): 0.29
- AQLQ(S) Symptoms score, change from baseline, Median (Week 8, 400 mg TID): 0.38
- AQLQ(S) Symptoms score, change from baseline, LS Mean Diff vs. placebo (Week 8, 400 mg TID, 95% CI −0.16, 0.43): 0.13
- AQLQ(S) Global score, change from baseline, LS Mean Diff vs. placebo (Week 8, 400 mg TID, 95% CI −0.18, 0.37): 0.10
- AQLQ(S) Activity limitation score, change from baseline, LS Mean Diff vs. placebo (Week 8, 400 mg TID, 95% CI −0.18, 0.38): 0.10
- AQLQ(S) Emotional function score, change from baseline, LS Mean Diff vs. placebo (Week 8, 400 mg TID, 95% CI −0.20, 0.45): 0.13
- AQLQ(S) Environmental stimuli score, change from baseline, LS Mean Diff vs. placebo (Week 8, 400 mg TID, 95% CI −0.34, 0.47): 0.06
- AQLQ(S) Activity limitation score, Mean (Week 12, 400 mg BID): 5.66
- AQLQ(S) Activity limitation score, Median (Week 12, 400 mg BID): 5.82
- AQLQ(S) Activity limitation score, change from baseline, LS Mean (Week 12, 400 mg BID): 0.77
- AQLQ(S) Activity limitation score, change from baseline, Mean (Week 12, 400 mg BID): 0.85
- AQLQ(S) Activity limitation score, change from baseline, Median (Week 12, 400 mg BID): 0.45
- AQLQ(S) Emotional function score, Mean (Week 12, 400 mg BID): 5.96
- AQLQ(S) Emotional function score, Median (Week 12, 400 mg BID): 6.20
- AQLQ(S) Emotional function score, change from baseline, LS Mean (Week 12, 400 mg BID): 0.97
- AQLQ(S) Emotional function score, change from baseline, Mean (Week 12, 400 mg BID): 0.72
- AQLQ(S) Emotional function score, change from baseline, Median (Week 12, 400 mg BID): 0.40
- AQLQ(S) Environmental stimuli score, Mean (Week 12, 400 mg BID): 5.34
- AQLQ(S) Environmental stimuli score, change from baseline, LS Mean (Week 12, 400 mg BID): 0.70
- AQLQ(S) Environmental stimuli score, change from baseline, Mean (Week 12, 400 mg BID): 0.87
- AQLQ(S) Environmental stimuli score, change from baseline, Median (Week 12, 400 mg BID): 0.50
- AQLQ(S) Global score, Mean (Week 12, 400 mg BID): 5.75
- AQLQ(S) Global score, Median (Week 12, 400 mg BID): 5.72
- AQLQ(S) Global score, change from baseline, LS Mean (Week 12, 400 mg BID): 0.82
- AQLQ(S) Global score, change from baseline, Mean (Week 12, 400 mg BID): 0.84
- AQLQ(S) Global score, change from baseline, Median (Week 12, 400 mg BID): 0.69
- AQLQ(S) Symptoms score, Mean (Week 12, 400 mg BID): 5.87
- AQLQ(S) Symptoms score, Median (Week 12, 400 mg BID): 5.92
- AQLQ(S) Symptoms score, change from baseline, LS Mean (Week 12, 400 mg BID): 0.84
- AQLQ(S) Symptoms score, change from baseline, Mean (Week 12, 400 mg BID): 0.87
- AQLQ(S) Symptoms score, change from baseline, Median (Week 12, 400 mg BID): 0.83
- AQLQ(S) Environmental stimuli score, change from baseline, LS Mean Diff vs. placebo (Week 12, 400 mg BID, 95% CI 0.06, 1.49): 0.78
- AQLQ(S) Emotional function score, change from baseline, LS Mean Diff vs. placebo (Week 12, 400 mg BID, 95% CI 0.12, 1.36): 0.74
- AQLQ(S) Symptoms score, change from baseline, LS Mean Diff vs. placebo (Week 12, 400 mg BID, 95% CI 0.22, 1.11): 0.67
- AQLQ(S) Global score, change from baseline, LS Mean Diff vs. placebo (Week 12, 400 mg BID, 95% CI 0.25, 1.18): 0.72
- AQLQ(S) Activity limitation score, change from baseline, LS Mean Diff vs. placebo (Week 12, 400 mg BID, 95% CI 0.28, 1.28): 0.78
- AQLQ(S) Activity limitation score, Mean (Week 12, 400 mg TID): 5.45
- AQLQ(S) Activity limitation score, Median (Week 12, 400 mg TID): 5.36
- AQLQ(S) Activity limitation score, change from baseline, LS Mean (Week 12, 400 mg TID): 0.62
- AQLQ(S) Activity limitation score, change from baseline, Mean (Week 12, 400 mg TID): 0.50
- AQLQ(S) Activity limitation score, change from baseline, Median (Week 12, 400 mg TID): 0.55
- AQLQ(S) Emotional function score, Mean (Week 12, 400 mg TID): 5.57
- AQLQ(S) Emotional function score, Median (Week 12, 400 mg TID): 5.60
- AQLQ(S) Emotional function score, change from baseline, LS Mean (Week 12, 400 mg TID): 0.53
- AQLQ(S) Emotional function score, change from baseline, Mean (Week 12, 400 mg TID): 0.43
- AQLQ(S) Emotional function score, change from baseline, Median (Week 12, 400 mg TID): 0.40
- AQLQ(S) Environmental stimuli score, Mean (Week 12, 400 mg TID): 5.08
- AQLQ(S) Environmental stimuli score, change from baseline, LS Mean (Week 12, 400 mg TID): 0.54
- AQLQ(S) Environmental stimuli score, change from baseline, Mean (Week 12, 400 mg TID): 0.46
- AQLQ(S) Environmental stimuli score, change from baseline, Median (Week 12, 400 mg TID): 0.50
- AQLQ(S) Global score, Mean (Week 12, 400 mg TID): 5.41
- AQLQ(S) Global score, Median (Week 12, 400 mg TID): 5.23
- AQLQ(S) Global score, change from baseline, LS Mean (Week 12, 400 mg TID): 0.57
- AQLQ(S) Global score, change from baseline, Mean (Week 12, 400 mg TID): 0.46
- AQLQ(S) Global score, change from baseline, Median (Week 12, 400 mg TID): 0.53
- AQLQ(S) Symptoms score, Mean (Week 12, 400 mg TID): 5.41
- AQLQ(S) Symptoms score, Median (Week 12, 400 mg TID): 5.25
- AQLQ(S) Symptoms score, change from baseline, LS Mean (Week 12, 400 mg TID): 0.59
- AQLQ(S) Symptoms score, change from baseline, Mean (Week 12, 400 mg TID): 0.44
- AQLQ(S) Symptoms score, change from baseline, Median (Week 12, 400 mg TID): 0.58
- AQLQ(S) Activity limitation score, change from baseline, LS Mean Diff vs. placebo (Week 12, 400 mg TID, 95% CI 0.02, 0.60): 0.31
- AQLQ(S) Global score, change from baseline, LS Mean Diff vs. placebo (Week 12, 400 mg TID, 95% CI −0.01, 0.60): 0.29
- AQLQ(S) Symptoms score, change from baseline, LS Mean Diff vs. placebo (Week 12, 400 mg TID, 95% CI −0.01, 0.68): 0.34
- AQLQ(S) Emotional function score, change from baseline, LS Mean Diff vs. placebo (Week 12, 400 mg TID, 95% CI −0.08, 0.72): 0.32
- AQLQ(S) Environmental stimuli score, change from baseline, LS Mean Diff vs. placebo (Week 12, 400 mg TID, 95% CI −0.23, 0.57): 0.17
